Where two headings read alike, the source gives them in different places.
Experiments:
[1] = tested on: Mutants resistant to proteasome inhibitors; conditions: versus corresponding wild-type strains; cited from earlier work
From the text: (§1) Mutations in Kelch13 (K13) are associated with ART resistance at the ring stage in laboratory settings[20]–[22]. […] Even a strain with doub ...

DR4 = assay: Parasite growth inhibition assay, DR4; assay type: cell-based; conditions: Plasmodium falciparum, Exp 2; read-out: EC50 (Fig. 1e)
Description: (§2) Parasite growth inhibition assays for P. falciparum wild type and mutants were performed as reported[19],[32].

Cam3.I^R539T = assay: Ring-stage survival assay, ART-resistant; assay type: cell-based, Plasmodium falciparum; conditions: 700 nM, 6 h
Description: (§3) Ring-stage survival assays (RSA) were performed as reported. Parasite cultures, artemisinin resistant Cam3.I^R539T and the genetically engineered artemisinin sensitive revertant Cam3.I^rev, were synchronized with 5% sorbitol and a Percoll-sorbitol gradient to obtain tightly synchronized late-stage parasites. After isolation, the tightly synchronized parasites were then allowed to reinvade fresh red blood cells for 3 h and the microscopically confirmed ring stage parasite cultures were again subjected to 5% sorbitol to obtain 0–3 h rings. The isolated ring stage cultures were then plated into a 96-well plate at 0.5% parasitemia and treated with DHA and TDI-8304 at 700 nM at 37 °C in standard gas conditions for 6 h. The plates were then spun and washed to remove compounds and replenished with fresh medium without compounds. Parasite growth was assessed 66 h later using flow cytometry (Becton-Dickson flow cytometer) and nucleic acid stains HO (Hoechst 33342) and TO (thiazole orange).

DR1/2/4 = assay: Parasite growth inhibition assay, DHA-selected clones; assay type: cell-based, Plasmodium falciparum
Description: as §2

Cam3.I^Rev = assay: Ring-stage survival assay, revertant; assay type: cell-based, Plasmodium falciparum; conditions: 700 nM, 6 h
Description: as §3

DR2 = assay: Parasite growth inhibition assay, DR2; assay type: cell-based; conditions: Plasmodium falciparum, read-out: EC50 (Fig. 1e)
Description: as §2

DR1 = assay: Parasite growth inhibition assay, DR1; assay type: cell-based; conditions: Plasmodium falciparum, read-out: EC50 (Fig. 1e)
Description: as §2

[2] = tested on: strain with double mutations in both the proteasome and K13; conditions: versus wild-type strain; cited from earlier work
From the text: as §1

Dd2 = assay: Parasite growth inhibition assay, Dd2; assay type: cell-based; conditions: Plasmodium falciparum
Description: as §2

P. falciparum 3D7A = conditions: compared with pyrimethamine; cited from earlier work
From the text: We previously reported two classes of non-covalent Pf20S selective inhibitors, one with a fast-on/off kinetics, represented by TDI-4258[19], and one with a time-dependent inhibition kinetics, represented by TDI-8304 (Fig. 1a)[16]. […] To investigate if inhibitors of the same target with diffe ...

## C[C@@H]1CC[C@H]2[C@@H](C)C(=O)O[C@@H]3O[C@@]4(C)CC[C@@H]1[C@]32OO4 [ART, artemisinin]
[1]
  susceptibility to ART: more susceptible to ART than the corresponding wild-type strains

## C[C@H]1[C@@H](O)O[C@@H]2O[C@@]3(C)CC[C@H]4[C@H](C)CC[C@@H]1[C@@]24OO3 [DHA, dihydroartemisinin]
DR4
  EC50: 8.1 nM
Cam3.I^R539T; 0–3 h rings, readout 66 h later, means of three independent experiments, paired t test
  ring-stage survival result in words, K13 R539T: highly resistant
Cam3.I^R539T; Exp 1
  ring-stage survival (Fig. 1c): 18.01
Cam3.I^R539T; Exp 2
  ring-stage survival (Fig. 1c): 10.3
Cam3.I^R539T; Exp 3
  ring-stage survival (Fig. 1c): 6.84
DR1/2/4; DHA-selected clones versus Dd2
  EC50 shift in the erythrocyte assays: ~ 10 fold
DR1/2/4; trophozoite stage, versus Dd2
  sensitivity of DR1/2/4 in words: highly resistant
Cam3.I^Rev; 0–3 h rings, readout 66 h later
  ring-stage survival result in words, K13 Rev: highly susceptible
Cam3.I^Rev; Exp 1
  ring-stage survival (Fig. 1c): 1.86
Cam3.I^Rev; Exp 2
  ring-stage survival (Fig. 1c): -0.27
Cam3.I^Rev; Exp 3
  ring-stage survival (Fig. 1c): 3.91
DR2; Exp 1
  EC50: 10.7 nM
DR2; Exp 2
  EC50: 8.7 nM
DR1; Exp 1
  EC50: 12.2 nM
DR1; Exp 2
  EC50: 7.1 nM
[2]
  susceptibility to DHA: more susceptible to DHA than the wild-type strain
Dd2; DD2, read-out: EC50 (Fig. 1e), Exp 1
  EC50: 1 nM
Dd2; DD2, read-out: EC50 (Fig. 1e), Exp 2
  EC50: 0.9 nM

## Cc1cc(C(=O)N[C@@H](CC(=O)NC(C)(C)C)C(=O)NCCNC(=O)c2cccc(-n3cccn3)c2)no1 [TDI-4258]
P. falciparum 3D7A
  in vitro parasite reduction ratio: modest in vitro parasite reduction ratio similar to that of the antimalarial drug pyrimethamine

From paper PMC10721928, “Structures revealing mechanisms of resistance and collateral sensitivity of Plasmodium falciparum to proteasome inhibitors” (Nature Communications, 2023)
